{"source": "patent US9937156B2", "about": "“Modulation of MRTF-A activity in pathologic fibrosis and wound healing” (The Board of Regents of the University of Texas System, priority 2013, dated 2018)", "system": "tail tip fibroblasts (TTFs), MRTF-A KO and WT", "experiment": "SMA expression in tail tip fibroblasts from MRTF-A KO and WT mice", "format": "cell-based, mouse", "settings": "TGF-β1 48 hrs", "procedure": "Mouse NIH/3T3 and human BR5 fibroblasts were grown as in DMEM supplemented with 10% BCS or FBS at 37° C. in a 5% CO2 incubator as previously described (Rhee et al., 2007). Primary mouse tail tip fibroblasts (TTFs) were isolated from 6- to 8-wk-old myocardin-related transcription factor (MRTF)-A−/− or wild-type littermates and cultured in DMEM supplemented with 10% FBS, nonessential amino acids, L-glutamine, and sodium pyruvate as described previously (Song et al., 2012). Once TTFs became confluent, cells were frozen in 10% DMSO containing growth media for future use before passage 3.\nNIH/3T3 cells were transfected with 10 ng empty flag or flag epitope-tagged MRTF-A vector along with 100 ng smooth muscle a-actin (SMA), atrial natriuretic factor (ANF), SM22, or skeletal actin (SKA) luciferase reporter and 20 ng of β-galactosidase (β-gal) expression construct using Fugene6 (Roche). Plasmid DNA content was kept constant using empty pcDNA3.1-flag. BR5, NIH/3T3, or TTF cells were infected with adenovirus directing the expression of flag-MRTF-A, HA-MRTF-A, or β-gal as control at the multiplicity of infection (MOI) noted in the text. For experiments using chemical compounds or growth factors, cells were cultured in serum-free media (SF) for 24 h before treatment, followed by an additional 24- to 48-hr incubation in SF media treated with TGF-β1 (10 ng/mL, R&D Systems) solubilized in 4 mM HCl/1% BSA/PBS or isoxazole (20 μM) solubilized inDMSO.\nCells were treated with the indicated factor for 24 h before fixation with methanol at −20° C. for 10 min. Indirect immunofluorescence was performed by incubating with the following primary antibodies at 4° C. overnight: mouse monoclonal Cy3-conjugated anti-SMA antibody (Sigma, clone 1A4, 1:200) and rabbit monoclonal anti-HA antibody (Cell Signaling, 1:300). A secondary goat Alexa Fluor 488-conjugated anti-rabbit IgG antibody (Invitrogen, 1:200) was used to visualize HA by incubation at RT for 1 hr. All images were captured using an Olympus IX81 confocal microscope. […]", "data": [{"substance": "TGF-β1: growth factor (R&D Systems) used at 10 ng/mL to stimulate fibroblast differentiation", "values": [{"measurement": "expression of genes encoding SMC contractile proteins (SMA and SM22), qPCR and Western blot", "setting": "MRTF-A-deficient TTFs", "value": "blunted"}, {"measurement": "SMA-positive stress fibers", "setting": "MRTF-A-deficient fibroblasts", "value": "did not display an enrichment"}, {"measurement": "morphology and SMA-positive stress fibers", "setting": "WT fibroblasts", "value": "adopting an elongated morphology and producing SMA-positive stress fibers"}]}]}
